Assay results published in PMC11957373 (Organic & biomolecular chemistry, 2024).

Assays:
[1] = tested on: HIVLAI; assay: Cell-based antiviral assay in MT-2 human-T-lymphoid cells exposed to HIVLAI; design: species or system HIV-1; details: for antiviral activity (in words): MT-2 cells exposed to HIVLAI
[2] = biological target: HIV-1 protease (Human immunodeficiency virus type 1 group M subtype B, UniProt P04585); assay: HIV-1 protease inhibition, spectrofluorometric assay; type: biochemical; details: for Ki: HIV-1 protease
[3] = at least 5 data points, standard error less than 7%

C=CCC1OC(C)CC1OC(=O)NC(Cc1ccccc1)C(O)CN(CC(C)C)S(=O)(=O)c1ccc(OC)cc1 [4a, (2S,3S,5R)-2-allyl-5-methyltetrahydrofuran-3-yl.((2S,3R)-3-hydroxy-4-((N-isobutyl-4-methoxyphenyl)sulfonamido)-1-phenylbutan-2-yl)carbamate]
antiviral activity (in words) [1]: did not exhibit any appreciable antiviral activity
Ki [2, 3]: 400 pM

COC[C@@H]1O[C@H](C)C[C@@H]1OC(=O)N[C@@H](Cc1ccccc1)[C@H](O)CN(CC(C)C)S(=O)(=O)c1ccc(N)cc1 [4d, (2S,3S,5R)-2-(methoxymethyl)-5-methyltetrahydrofuran-3-yl((2S,3R)-4-((4-amino-N-isobutylphenyl)sulfonamido)-3-hydroxy-1-phenylbutan-2-yl)carbamate]
fold reduction of protease inhibitory activity over compound 4c ([2]; relative to compound 4c): over 300 fold

COC[C@H]1O[C@@H](C)C[C@H]1OC(=O)N[C@@H](Cc1ccccc1)[C@H](O)CN(CC(C)C)S(=O)(=O)c1ccc(OC)cc1 [4e, (2R,3R,5S)-2-(methoxymethyl)-5-methyltetrahydrofuran-3-yl.((2S,3R)-3-hydroxy-4-((N-isobutyl-4-methoxyphenyl)sulfonamido)-1-phenylbutan-2-yl)carbamate]
fold reduction of protease inhibitory activity over compound 4c ([2]; relative to compound 4c): ~4 fold

COC[C@H]1O[C@H](C)C[C@@H]1OC(=O)N[C@@H](Cc1ccccc1)[C@H](O)CN(CC(C)C)S(=O)(=O)c1ccc(OC)cc1 [4h, (2R,3S,5R)-2-(methoxymethyl)-5-methyltetrahydrofuran-3-yl((2S,3R)-3-hydroxy-4-((N-isobutyl-4-methoxyphenyl)sulfonamido)-1-phenylbutan-2-yl)carbamate]
Ki ([2]; value printed in pM): 49 pM
fold improvement of enzyme affinity compared to compound 4c ([2]; relative to compound 4c): over 5 fold

COc1ccc(S(=O)(=O)N(CC(C)C)C[C@@H](O)[C@H](Cc2ccccc2)NC(=O)O[C@H]2C[C@@H](C)O[C@H]2[C@@H]2CCCO2)cc1 [4k, (2S,2’S,3S,5R)-5-methyloctahydro-[2,2’-bifuran]-3-yl((2S,3R)-3-hydroxy-4-((N-isobutyl-4-methoxyphenyl)sulfonamido)-1-phenylbutan-2-yl)carbamate]
antiviral activity (in words) [1]: did not exhibit any appreciable antiviral activity
Ki [2, 3]: 310 pM

COc1ccc(S(=O)(=O)N(CC(C)C)C[C@@H](O)[C@H](Cc2ccccc2)NC(=O)O[C@H]2C[C@@H](C)O[C@H]2[C@H]2CCCO2)cc1 [4l, (2S,2’R,3S,5R)-5-methyloctahydro-[2,2’-bifuran]-3-yl((2S,3R)-3-hydroxy-4-((N-isobutyl-4-methoxyphenyl)sulfonamido)-1-phenylbutan-2-yl)carbamate]
antiviral activity (in words) [1]: did not exhibit any appreciable antiviral activity
Ki ([2]; value printed in pM): 44 pM

CC(C)CN(C[C@@H](O)[C@H](Cc1ccccc1)NC(=O)O[C@H]1CO[C@H]2OCC[C@H]21)S(=O)(=O)c1ccc(N)cc1 [Darunavir, darunavir, reference compound]
EC50 ([1]; Human immunodeficiency virus 1, MT2): 1.6 nM
